From patent US12509482B2, “3′-ketoglycoside compound for the slow release of a volatile alcohol” (GLYCOSCIENCE, S.L., priority 2020, dated 2025)

Tests used:
Type in all cases: physicochemical
[1] = Example 14: release of eugenol from eugenyl-O-β-D-3′-ketoglucopyranoside, 0.1 M deuterated phosphate buffer or D2O, 33% D6-DMSO, 32° C.
Experimental: In this example the rate of release of eugenol from (2S,3S,5R,6R)-2-(4-allyl-2-methoxyphenoxy)-3,5-dihydroxy-6-(hydroxymethyl)tetrahydro-4H-pyran-4-one (eugenyl-O-β-D-3′-ketoglucopyranoside) in 0.1 M deuterated phosphate buffer solutions of differing pH containing 33% D6-DMSO was determined.
(§1) 0.1 M of pH 5.8 and 7.4 stock buffered solutions of sodium dihydrogen phosphate and disodium hydrogen phosphate were prepared in deuterated water (D2O).
A stock solution of 15 mg of eugenyl-O-β-D-3′-ketoglucopyranoside in 1.0 mL of D6-DMSO were prepared.
(§2) To three parallel reaction vials, where indicated in the reaction table below, was added 0.20 mL of the glycoside substrate solutions in D6-DMSO and 0.40 mL of low or high pH 0.1M phosphate buffer in D2O or D2O and the mixtures incubated by shaking at 32° C. After times indicated in table below, the mixtures where analysed by ^1H-NMR in a 400 MHz instrument.

[2] = Example 27: release of phenol from 2′,6′-diacetyl-phenyl-O-β-D-3′-ketoglucopyranoside, 0.1 M deuterated phosphate buffer or D2O, 33% D6-DMSO, 32° C.
Experimental: as §1
A stock solution of 25 mg of 2′,6′-diacetyl-phenyl-O-β-D-3′-ketoglucopyranoside in 1.0 mL of D6-DMSO were prepared.
as §2, with “D2O” for “D2O or D2O”

[3] = Example 19: release of cis-PMD from cis-PMD-O-β-D-3′-ketoglucopyranoside, 0.1 M deuterated phosphate buffer, 33% D6-DMSO, 32° C.
Experimental: In this example the rate of release of cis-PMD from (2R,3R,5S)-3,5-dihydroxy-2-(hydroxymethyl)-6-((5-(2-hydroxypropan-2-yl)-2-methylcyclohexyl)oxy)tetrahydro-4H-pyran-4-one (cis-PMD-O-β-D-3′-ketoglucopyranoside) in 0.1 M deuterated phosphate buffer solutions of differing pH containing 33% D6-DMSO was determined. 0.1 M of pH 5.8 and 7.4 stock buffered solutions of sodium dihydrogen phosphate and disodium hydrogen phosphate were prepared in deuterated water (D2O).
A stock solution of 10 mg of cis-PMD-O-β-D-3′ketoglucopyranoside in 0.5 mL of D6-DMSO were prepared.
as §2, with “two” for “three”, “[…]” for “0.40”, “in” for “in D2O or”

[4] = Example 26: release of geraniol from 2′,6′-diacetyl-geranyl-O-β-D-3′-ketoglucopyranoside, 0.1 M deuterated phosphate buffer, 50% D6-DMSO, 32° C.
Experimental: In this example the rate of release of geraniol from (((2R,3R,5S)-5-acetoxy-6-(((E)-3,7-dimethylocta-2,6-dien-1-yl)oxy)-3-hydroxy-4-oxotetrahydro-2H-pyran-2-yl)methyl acetate (2′,6′-Diacetyl-geranyl-O-β-D-3′-ketoglucopyranoside) in 0.1 M deuterated phosphate buffer solutions of differing pH containing 50% D6-DMSO was determined.
as §1
A stock solution of 15 mg of 2′,6′-diacetyl-geranyl-O-β-D-3′-ketoglucopyranoside in 1.5 mL of D6-DMSO were prepared.
as §2, with “two” for “three”, “0.35” for “0.20”, “0.35” for “0.40”, “in” for “in D2O or”

[5] = Example 18: release of picaridin from 250 μM picaridin-O-β-D-3′-ketoglucopyranoside in different pH aqueous buffers, 32° C., UPLC
Experimental: In this example the rate of release of picaridin from a solution of sec-butyl 2-(2-(((2R,3S,5R,6R)-3,5-dihydroxy-6-(hydroxymethyl)-4-oxotetrahydro-2H-pyran-2-yl)oxy)ethyl)piperidine-1-carboxylate (picaridin-O-β-D-3′-ketoglucopyranoside) different pH aqueous buffers was determined.
Parallel mixtures containing 250 μM picaridin-O-β-D-3′-ketoglucopyranoside in 0.05M K2HPO4 0.95M/KH2PO4, pH=8.5 buffer (Reaction 1), 0.17M Na2HPO4/0.02M citric acid, pH=7 buffer (Reaction 2), 0.12M Na2HPO4/0.04M citric acid buffer, pH=5.8 (Reaction 3) and 0.04M sodium citrate/0.06M citric acid buffer, pH=4 (Reaction 4) were incubated at 32° C. Aliquots of 10 μl were periodically taken, diluted with MeCN (90 μl) and analysed by UPLC using the following instrument and conditions: • Stationary phase: Acquity UPLC® BEH C18 1.7 μm (2.1 mm×50 mm) (Waters) • Mobile phase: A: water+0.1% formic acid; B: acetonitrile+0.1% formic acid • The chromatographic equipment employed was an UPLC QSM Waters Acquity. • Gradient conditions:
• Flow Rate(mL/min) 0.6 • Source Temperature (° C.) 150 • Desolvation Temperature (° C.) 500 • Cone Gas Flow (L/Hr) 50 • Desolvation Gas Flow (L/Hr) 900 • Target Column Temperature 35° C.
Target Sample Temperature 8.0° C.

SMILES: C=CCc1ccc(O[C@@H]2O[C@H](CO)[C@@H](O)C(=O)[C@H]2O)c(OC)c1 [eugenyl-O-β-D-3′-ketoglucopyranoside, (2S,3S,5R,6R)-2-(4-allyl-2-methoxyphenoxy)-3,5-dihydroxy-6-(hydroxymethyl)tetrahydro-4H-pyran-4-one]
- pH dependence of eugenol release (in words) ([1]; 32° C.): only slowly degraded at pH 5.8, but releases eugenol at a significantly higher rate at pH 7.4
- % Conversion by 1H-NMR ([1]; D2O, 1 h): 3%
- % Conversion by 1H-NMR ([1]; D2O, 5 h): 3%
- % Conversion by 1H-NMR ([1]; D2O, 23 h): 5%
- % Conversion by 1H-NMR ([1]; D2O, 69 h): 10%
- % Conversion by 1H-NMR ([1]; pH 5.8, 1 h): 3%
- % Conversion by 1H-NMR ([1]; pH 5.8, 5 h): 3%
- % Conversion by 1H-NMR ([1]; pH 5.8, 23 h): 5%
- % Conversion by 1H-NMR ([1]; pH 5.8, 69 h): 5%
- % Conversion by 1H-NMR ([1]; pH 7.4, 1 h): 3%
- % Conversion by 1H-NMR ([1]; pH 7.4, 5 h): 8%
- % Conversion by 1H-NMR ([1]; pH 7.4, 23 h): 60%
- % Conversion by 1H-NMR ([1]; pH 7.4, 69 h): 80%

SMILES: CC(=O)OC[C@H]1O[C@@H](Oc2ccccc2)[C@H](OC(C)=O)C(=O)[C@@H]1O [((2R,3R,5S,6S)-5-acetoxy-3-hydroxy-4-oxo-6-phenoxytetrahydro-2H-pyran-2-yl)methyl acetate]
- phenol release (in words) ([2]; 32° C.): generates phenol at both pH 5.8 and pH 7.4 and in D2O
- % Conversion by 1H-NMR ([2]; D2O, 0 h): 0%
- % Conversion by 1H-NMR ([2]; D2O, 4 h): 0%
- % Conversion by 1H-NMR ([2]; D2O, 22 h): 10%
- % Conversion by 1H-NMR ([2]; D2O, 70 h (printed under the 52 h column)): 21%
- % Conversion by 1H-NMR ([2]; pH 5.8, 0 h): 14%
- % Conversion by 1H-NMR ([2]; pH 5.8, 4 h): 18%
- % Conversion by 1H-NMR ([2]; pH 5.8, 22 h): 24%
- % Conversion by 1H-NMR ([2]; pH 5.8, 52 h): 26%
- % Conversion by 1H-NMR ([2]; pH 5.8, 120 h): 36%
- % Conversion by 1H-NMR ([2]; pH 5.8, 432 h): 54%
- % Conversion by 1H-NMR ([2]; pH 7.4, 0 h): 19%
- % Conversion by 1H-NMR ([2]; pH 7.4, 4 h): 43%
- % Conversion by 1H-NMR ([2]; pH 7.4, 22 h): 74%
- % Conversion by 1H-NMR ([2]; pH 7.4, 52 h): 81%
- % Conversion by 1H-NMR ([2]; pH 7.4, 120 h): 93%
- % Conversion by 1H-NMR ([2]; pH 7.4, 432 h): 100%

SMILES: C[C@@H]1CC[C@@H](C(C)(C)O)C(O[C@@H]2O[C@H](CO)[C@@H](O)C(=O)[C@H]2O)C1 (mixture of isomers) [cis-PMD-O-β-D-3′-ketoglucopyranoside, (2R,3R,5S,6R)-3,5-dihydroxy-2-(hydroxymethyl)-6-(((1S,2R,5R)-2-(2-hydroxypropan-2-yl)-5-methylcyclohexyl)-oxy)tetrahydro-4H-pyran-4-one]
- pH dependence of cis-PMD release (in words) ([3]; 32° C.): only slowly degraded at pH 5.8, but releases cis-PMD at a significantly higher rate at pH 7.4
- % Conversion by 1H-NMR ([3]; pH 5.8, 0 h): 0%
- % Conversion by 1H-NMR ([3]; pH 5.8, 3 h): 0%
- % Conversion by 1H-NMR ([3]; pH 5.8, 20 h): 0%
- % Conversion by 1H-NMR ([3]; pH 5.8, 95 h): <5%
- % Conversion by 1H-NMR ([3]; pH 7.4, 0 h): 0%
- % Conversion by 1H-NMR ([3]; pH 7.4, 3 h): 12%
- % Conversion by 1H-NMR ([3]; pH 7.4, 20 h): 39%
- % Conversion by 1H-NMR ([3]; pH 7.4, 95 h): 45%
- % Conversion by 1H-NMR ([3]; pH 7.4, 167 h): 85%

SMILES: CC(=O)OC[C@H]1O[C@@H](OC/C=C(\C)CCC=C(C)C)[C@H](OC(C)=O)C(=O)[C@@H]1O [((2R,3R,5S,6R)-5-acetoxy-6-(((E)-3,7-dimethylocta-2,6-dien-1-yl)oxy)-3-hydroxy-4-oxotetrahydro-2H-pyran-2-yl)methyl acetate]
- geraniol release (in words) ([4]; 32° C.): generates geraniol at both pH 5.8 and pH 7.4
- % Conversion by 1H-NMR ([4]; pH 5.8, 0 h): 0%
- % Conversion by 1H-NMR ([4]; pH 5.8, 5 h): 10%
- % Conversion by 1H-NMR ([4]; pH 5.8, 24 h): 20%
- % Conversion by 1H-NMR ([4]; pH 5.8, 48 h): 39%
- % Conversion by 1H-NMR ([4]; pH 5.8, 120 h): 43%
- % Conversion by 1H-NMR ([4]; pH 5.8, 480 h): 92%
- % Conversion by 1H-NMR ([4]; pH 5.8, column head 19 (between 120 h and 480 h)): 62%
- % Conversion by 1H-NMR ([4]; pH 7.4, 0 h): 0%
- % Conversion by 1H-NMR ([4]; pH 7.4, 5 h): 6%
- % Conversion by 1H-NMR ([4]; pH 7.4, 24 h): 25%
- % Conversion by 1H-NMR ([4]; pH 7.4, 48 h): 33%
- % Conversion by 1H-NMR ([4]; pH 7.4, 120 h): 37%
- % Conversion by 1H-NMR ([4]; pH 7.4, 480 h): 85%
- % Conversion by 1H-NMR ([4]; pH 7.4, column head 19 (between 120 h and 480 h)): 55%

SMILES: CCC(C)OC(=O)N1CCCCC1CCO[C@@H]1O[C@H](CO)[C@@H](O)C(=O)[C@H]1O (stereo partly drawn) [picaridin-O-β-D-3′-ketoglucopyranoside, sec-butyl 2-(2-(((2R,3S,5R,6R)-3,5-dihydroxy-6-(hydroxymethyl)-4-oxotetrahydro-2H-pyran-2-yl)oxy)ethyl) piperidine-1-carboxylate]
- pH dependence of degradation (in words) ([5]; 32° C.): degraded at increasing rate between pH 4 and pH 8.5
- Picaridin released ([5]; Reaction 1, pH=8.5 buffer, 0 h): 1 µM
- Picaridin released ([5]; Reaction 1, pH=8.5 buffer, 7 h): 2 µM
- Picaridin released ([5]; Reaction 1, pH=8.5 buffer, 24 h): 7 µM
- Picaridin released ([5]; Reaction 1, pH=8.5 buffer, 50 h): 15 µM
- Picaridin released ([5]; Reaction 2, pH=7 buffer, 0 h): 1 µM
- Picaridin released ([5]; Reaction 2, pH=7 buffer, 7 h): 1 µM
- Picaridin released ([5]; Reaction 2, pH=7 buffer, 24 h): 2 µM
- Picaridin released ([5]; Reaction 2, pH=7 buffer, 50 h): 4 µM
- Picaridin released ([5]; Reaction 3, pH=5.8 buffer, 0 h): 0.25 µM
- Picaridin released ([5]; Reaction 3, pH=5.8 buffer, 7 h): 0.75 µM
- Picaridin released ([5]; Reaction 3, pH=5.8 buffer, 24 h): 1 µM
- Picaridin released ([5]; Reaction 3, pH=5.8 buffer, 50 h): 2 µM
- Picaridin released ([5]; Reaction 4, pH=4 buffer, 0 h): 0.25 µM
- Picaridin released ([5]; Reaction 4, pH=4 buffer, 7 h): 0.75 µM
- Picaridin released ([5]; Reaction 4, pH=4 buffer, 24 h): 1 µM
- Picaridin released ([5]; Reaction 4, pH=4 buffer, 50 h): 1.75 µM
